Results as given in ChEMBL document CHEMBL5608208, “Design, synthesis of griseofamine A derivatives and development of potent antibacterial agents against MRSA” (Eur J Med Chem, 2024).
Values after ≈ are worked out from the molar mass of the structure shown. Active and inactive are the calls of the source. No cut-off for these calls is given here.

Columns and labels:
Staphylococcus aureus [1] = assay: Antibacterial activity against Staphylococcus aureus ATCC 29213 incubated for 18 hrs by serial two-fold dilution method; format: functional
Staphylococcus aureus [2] = assay: Potency index, ratio of vancomycin MIC to test compound MIC for antibacterial activity against methicillin resistant Staphylococcus aureus ATCC 43300; format: functional
Staphylococcus aureus [3] = assay: Potency index, ratio of griseofamine A MIC to test compound MIC for antibacterial activity against methicillin resistant Staphylococcus aureus ATCC 43300; format: functional
Staphylococcus aureus [4] = assay: Potency index, ratio of vancomycin MIC to test compound MIC for antibacterial activity against methicillin resistant Staphylococcus aureus ATCC 33592; format: functional
Staphylococcus aureus [5] = assay: Antibacterial activity against methicillin resistant Staphylococcus aureus ATCC 43300 incubated for 18 hrs by serial two-fold dilution method; format: functional
Staphylococcus aureus [6] = assay: Antibacterial activity against methicillin resistant Staphylococcus aureus ATCC 33592 incubated for 18 hrs by serial two-fold dilution method; format: functional
Staphylococcus aureus [7] = assay: Bactericidal activity against methicillin resistant Staphylococcus aureus ATCC 33592 incubated for 18 to 24 hrs; format: functional; details: time 18-24 hrs
Staphylococcus aureus [8] = assay: Bactericidal activity against methicillin resistant Staphylococcus aureus ATCC 43300 incubated for 18 to 24 hrs; format: functional; details: time 18-24 hrs
Staphylococcus aureus [9] = assay: Bactericidal activity against Staphylococcus aureus ATCC 29213 incubated for 18 to 24 hrs; format: functional; details: time 18-24 hrs
Staphylococcus aureus [10] = assay: Potency index, ratio of griseofamine A MIC to test compound MIC for antibacterial activity against methicillin resistant Staphylococcus aureus ATCC 33592; format: functional
[11] = system: Staphylococcus epidermidis; assay: Bactericidal activity against Staphylococcus epidermidis ATCC 12228 incubated for 18 to 24 hrs; format: functional; details: time 18-24 hrs
[12] = system: Staphylococcus epidermidis; assay: Antibacterial activity against Staphylococcus epidermidis ATCC 12228 incubated for 18 hrs by serial two-fold dilution method; format: functional
Staphylococcus aureus [13] = assay: Antibacterial activity against methicillin resistant Staphylococcus aureus ATCC 43300 infected in ICR mouse systemic infection model at 2.5 mg/kg, ip pretreated with bacteria for 30 mins followed by compound addition and measured for 7 days; format: functional; details: time 7 day
Staphylococcus aureus [14] = assay: Bactericidal activity against methicillin resistant Staphylococcus aureus ATCC 33592 at 2.5 times MIC by time-kill kinetics assay; format: functional, organism-based
[15] = system: Staphylococcus epidermidis; assay: Drug resistance development in Staphylococcus epidermidis ATCC 12228 assessed as increase in MIC value measured after 8 passages by broth microdilution method; format: functional
Staphylococcus aureus [16] = assay: Bactericidal activity against methicillin resistant Staphylococcus aureus ATCC 33592 at 2.5 times MIC measured after 12 hrs by time-kill kinetics assay; format: functional, organism-based
Staphylococcus aureus [17] = assay: Potency index, ratio of griseofamine A MIC to test compound MIC for antibacterial activity against Staphylococcus aureus ATCC 29213; format: functional
Staphylococcus aureus [18] = assay: Potency index, ratio of vancomycin MIC to test compound MIC for antibacterial activity against Staphylococcus aureus ATCC 29213; format: functional

Row | Structure (SMILES) | MIC (Staphylococcus aureus [1]) [mg/L] | Ratio (Staphylococcus aureus [2]) | Ratio (Staphylococcus aureus [3]) | Ratio (Staphylococcus aureus [4]) | MIC (Staphylococcus aureus [5]) [mg/L] | MIC (Staphylococcus aureus [6]) [mg/L] | MBC (Staphylococcus aureus [7]) [mg/L] | MBC (Staphylococcus aureus [8]) [mg/L] | MBC (Staphylococcus aureus [9]) [mg/L] | Ratio (Staphylococcus aureus [10]) | MBC [11] [mg/L] | MIC [12] [mg/L] | Activity (Staphylococcus aureus [13]) [%] | Activity (Staphylococcus aureus [14]) | MIC [15] [mg/L] | Activity (Staphylococcus aureus [16]) | Ratio (Staphylococcus aureus [17]) | Ratio (Staphylococcus aureus [18])
1 | C/C(O)=C1\C(=O)[C@@H]2Cc3c([nH]c4ccccc34)[C@@H](c3ccc(-c4ccc(OC(F)(F)F)cc4)cc3)N2C1=O | 0.063 (≈ 0.122 µM) | 8 | 128 | 8 | 0.063 (≈ 0.122 µM) | 0.063 (≈ 0.122 µM) | 4 (≈ 7.71 µM) | 4 (≈ 7.71 µM) | 4 (≈ 7.71 µM) | 128 | 1 (≈ 1.93 µM) | 0.125 (≈ 0.241 µM) | – | – | – | – | – | –
2 | CN[C@H](CC(C)C)C(=O)N[C@H]1C(=O)N[C@@H](CC(N)=O)C(=O)N[C@H]2C(=O)N[C@H]3C(=O)N[C@H](C(=O)N[C@H](C(=O)O)c4cc(O)cc(O)c4-c4cc3ccc4O)[C@H](O)c3ccc(c(Cl)c3)Oc3cc2cc(c3O[C@@H]2O[C@H](CO)[C@@H](O)[C@H](O)[C@H]2O[C@H]2C[C@](C)(N)[C@H](O)[C@H](C)O2)Oc2ccc(cc2Cl)[C@H]1O [VANCOMYCIN] | – | – | – | – | – | – | 1 (≈ 0.69 µM) | 1 (≈ 0.69 µM) | 1 (≈ 0.69 µM) | – | 0.25 (≈ 0.173 µM) | 0.5 (≈ 0.345 µM) | 62.5 | Active | 0.5 | inactive | – | –
3 | C/C(O)=C1\C(=O)[C@@H]2Cc3c([nH]c4ccccc34)[C@@H](c3ccc(-c4ccccc4)cc3)N2C1=O | 0.125 (≈ 0.288 µM) | – | – | – | – | – | – | – | – | – | – | – | – | – | – | – | 64 | 4
4 | O=C1/C(=C(/O)c2ccccc2)C(=O)N2[C@H](c3ccc(-c4cc(F)cc(F)c4)cc3)c3[nH]c4ccccc4c3C[C@@H]12 | 0.25 (≈ 0.469 µM) | – | – | – | 0.125 (≈ 0.235 µM) | 0.125 (≈ 0.235 µM) | – | – | – | – | – | 0.25 (≈ 0.469 µM) | – | – | – | – | – | –
